Reference: patent publication US8471005B2 (Cephalon, Inc., priority 2008, dated 2013)

Columns and labels:
ALK = molecular target: T1, ALK (Homo sapiens, UniProt Q9UM73); experiment: ALK Kinase Assay (ELISA/TRF, PLC-γ substrate); type: biochemical; conditions: ALK kinase inhibition, 1 μM ATP; read-out: ALK Potency
T1 construct: host or cells: baculovirus expression system
How it was run: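 PLC-γ coat 10 μg/mL in TBS; ALK 30 ng/ml added to start; 37° C, 15 min; Eu-N1 PT66 antibody detection (TRF). IC50: % inhibition vs log10 [cpd], variable-slope sigmoidal fit.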

JAK2 = molecular target: T2, JAK2 (Homo sapiens, UniProt O60674); experiment: Recombinant Human JAK2 Kinase Assay (TRF); type: biochemical; conditions: JAK2 kinase inhibition, 0.2 μM ATP; read-out: JAK2 Potency
T2 construct: host or cells: baculovirus expression system
How it was run: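 Kinase activity of baculovirus-expressed JAK2 is followed on a surface-immobilised biotinylated peptide, with the reaction run for 20 min at room temperature in buffer containing 0.2 μM ATP and manganese. Phosphorylation is read with Eu-N1 PY100 antibody.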

T2 sequence (O60674 whole entry): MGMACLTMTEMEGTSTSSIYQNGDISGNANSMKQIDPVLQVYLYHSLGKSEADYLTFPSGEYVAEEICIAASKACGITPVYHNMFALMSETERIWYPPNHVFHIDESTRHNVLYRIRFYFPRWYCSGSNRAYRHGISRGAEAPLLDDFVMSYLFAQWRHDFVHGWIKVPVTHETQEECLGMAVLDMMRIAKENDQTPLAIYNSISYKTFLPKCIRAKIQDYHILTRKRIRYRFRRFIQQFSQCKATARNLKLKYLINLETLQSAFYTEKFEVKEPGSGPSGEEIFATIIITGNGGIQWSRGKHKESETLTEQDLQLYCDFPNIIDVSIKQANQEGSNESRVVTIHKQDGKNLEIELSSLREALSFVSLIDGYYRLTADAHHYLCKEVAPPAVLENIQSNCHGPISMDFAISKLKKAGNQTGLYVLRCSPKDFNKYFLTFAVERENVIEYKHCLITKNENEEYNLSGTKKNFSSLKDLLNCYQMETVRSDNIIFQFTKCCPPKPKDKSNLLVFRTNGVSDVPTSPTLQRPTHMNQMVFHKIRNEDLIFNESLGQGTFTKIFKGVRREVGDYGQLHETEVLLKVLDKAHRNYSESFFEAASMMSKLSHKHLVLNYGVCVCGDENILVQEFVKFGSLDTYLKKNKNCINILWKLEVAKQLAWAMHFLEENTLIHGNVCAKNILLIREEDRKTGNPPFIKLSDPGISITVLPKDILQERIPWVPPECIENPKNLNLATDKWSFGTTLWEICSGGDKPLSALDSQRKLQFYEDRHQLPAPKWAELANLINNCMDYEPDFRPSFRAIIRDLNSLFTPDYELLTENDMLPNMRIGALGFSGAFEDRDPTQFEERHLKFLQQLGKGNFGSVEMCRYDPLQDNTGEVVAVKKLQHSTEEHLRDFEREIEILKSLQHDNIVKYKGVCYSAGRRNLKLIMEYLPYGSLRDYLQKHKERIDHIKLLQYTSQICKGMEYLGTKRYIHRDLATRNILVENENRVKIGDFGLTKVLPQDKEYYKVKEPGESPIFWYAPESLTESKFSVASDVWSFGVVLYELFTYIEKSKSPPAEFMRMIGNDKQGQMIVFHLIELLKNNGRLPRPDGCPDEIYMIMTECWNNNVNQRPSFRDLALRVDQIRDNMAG
T1 sequence (Q9UM73 19-1620): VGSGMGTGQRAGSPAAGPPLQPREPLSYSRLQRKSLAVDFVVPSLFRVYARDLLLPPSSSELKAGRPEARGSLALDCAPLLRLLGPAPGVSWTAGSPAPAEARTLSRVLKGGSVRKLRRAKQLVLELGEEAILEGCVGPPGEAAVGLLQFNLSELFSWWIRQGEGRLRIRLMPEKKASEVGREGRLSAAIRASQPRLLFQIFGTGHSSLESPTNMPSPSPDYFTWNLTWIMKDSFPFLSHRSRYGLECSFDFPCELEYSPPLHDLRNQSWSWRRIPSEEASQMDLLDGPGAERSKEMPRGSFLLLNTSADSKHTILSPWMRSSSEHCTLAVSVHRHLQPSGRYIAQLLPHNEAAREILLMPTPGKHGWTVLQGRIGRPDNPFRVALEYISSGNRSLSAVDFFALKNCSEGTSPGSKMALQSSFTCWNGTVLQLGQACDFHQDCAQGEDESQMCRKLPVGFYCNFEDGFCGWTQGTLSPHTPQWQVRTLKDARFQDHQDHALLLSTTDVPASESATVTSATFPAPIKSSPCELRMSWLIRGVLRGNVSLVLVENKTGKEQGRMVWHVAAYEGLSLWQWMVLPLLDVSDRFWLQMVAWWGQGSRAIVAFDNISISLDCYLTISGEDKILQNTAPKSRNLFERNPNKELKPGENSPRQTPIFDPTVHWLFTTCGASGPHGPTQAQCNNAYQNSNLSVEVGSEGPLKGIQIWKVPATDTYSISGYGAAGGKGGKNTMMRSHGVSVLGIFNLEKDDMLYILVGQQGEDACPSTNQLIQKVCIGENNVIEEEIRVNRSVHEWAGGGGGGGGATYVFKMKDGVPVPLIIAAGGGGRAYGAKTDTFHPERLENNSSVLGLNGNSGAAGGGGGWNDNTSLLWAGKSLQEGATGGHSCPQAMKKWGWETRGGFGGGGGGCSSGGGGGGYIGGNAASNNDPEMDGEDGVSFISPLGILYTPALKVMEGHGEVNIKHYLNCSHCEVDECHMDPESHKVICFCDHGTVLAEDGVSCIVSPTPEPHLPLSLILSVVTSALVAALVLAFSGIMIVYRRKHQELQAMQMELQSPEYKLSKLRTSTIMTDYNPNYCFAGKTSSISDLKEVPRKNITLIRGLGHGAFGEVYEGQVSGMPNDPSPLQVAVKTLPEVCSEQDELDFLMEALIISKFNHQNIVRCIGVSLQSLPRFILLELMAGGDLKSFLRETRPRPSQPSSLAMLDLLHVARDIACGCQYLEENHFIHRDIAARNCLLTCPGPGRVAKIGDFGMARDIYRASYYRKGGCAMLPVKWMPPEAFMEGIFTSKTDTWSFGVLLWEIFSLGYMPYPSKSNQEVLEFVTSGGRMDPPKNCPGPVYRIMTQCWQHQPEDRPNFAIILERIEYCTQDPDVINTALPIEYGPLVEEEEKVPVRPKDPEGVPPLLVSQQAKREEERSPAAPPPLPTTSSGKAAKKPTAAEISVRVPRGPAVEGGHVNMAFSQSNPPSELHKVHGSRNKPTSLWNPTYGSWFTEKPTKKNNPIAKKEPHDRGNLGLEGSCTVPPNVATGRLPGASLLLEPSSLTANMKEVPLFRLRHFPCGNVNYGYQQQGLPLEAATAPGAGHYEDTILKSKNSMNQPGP

COc1ccccc1-c1ccc2cnc(Nc3ccc4c(c3)CN(CC(N)=O)CC4)nn12 [Example 987, 2-{7-[7-(2-Methoxy-phenyl)-pyrrolo[2,1-f][1,2,4]triazin-2-ylamino]-3,4-dihydro-1H-isoquinolin-2-yl}-acetamide]
IC50 (ALK): 100 to 1000 nM
IC50 (JAK2): < 100 nM

COCCNc1cccc(-c2ccc3cnc(Nc4cccc(NC(C)=O)c4)nn23)c1 [Example 988, N-(3-{7-[3-(2-Methoxy-ethylamino)-phenyl]-pyrrolo[2,1-f][1,2,4]triazin-2-ylamino}-phenyl)-acetamide]
IC50 (ALK): 1000 to 10000 nM
IC50 (JAK2): < 100 nM

COc1cc2c(cc1Nc1ncc3ccc(-c4ccccc4OC)n3n1)CCN(C[C@@H](C)O)CC2 [Example 991, (R)-1-{7-Methoxy-8-[7-(2-methoxy-phenyl)-pyrrolo[2,1-f][1,2,4]triazin-2-ylamino]-1,2,4,5-tetrahydro-benzo[d]azepin-3-yl}-propan-2-ol]
IC50 (ALK): < 100 nM
IC50 (JAK2): 100 to 1000 nM

COc1cc2c(cc1Nc1ncc3ccc(-c4ccccc4N(C)S(C)(=O)=O)n3n1)CCCC(N1CCOCC1)C2 (centres unmarked) [Example 993, N-{2-[2-(3-Methoxy-6-morpholin-4-yl-6,7,8,9-tetrahydro-5H-benzocyclohepten-2-ylamino)-pyrrolo[2,1-f][1,2,4]triazin-7-yl]-phenyl}-N-methyl-methanesulfonamide]
IC50 (ALK): < 100 nM
IC50 (JAK2): 100 to 1000 nM

COc1cc(N2CCN(c3ccccn3)CC2)ccc1Nc1ncc2ccc(-c3ccccc3OC)n2n1 [Example 994, [7-(2-Methoxy-phenyl)-pyrrolo[2,1-f][1,2,4]triazin-2-yl]-[2-methoxy-4-(4-pyridin-2-yl-piperazin-1-yl)-phenyl]-amine]
IC50 (ALK): 100 to 1000 nM
IC50 (JAK2): 100 to 1000 nM

CCN1CCOC(c2ccc(Nc3ncc4ccc(-c5ccccc5N(C)S(C)(=O)=O)n4n3)cc2)C1 (centres unmarked) [Example 995, N-(2-{2-[4-(4-Ethyl-morpholin-2-yl)-phenylamino]-pyrrolo[2,1-f][1,2,4]triazin-7-yl}-phenyl)-N-methyl-methanesulfonamide]
IC50 (ALK): < 100 nM
IC50 (JAK2): < 100 nM

COc1cc2c(cc1Nc1ncc3ccc(-c4ccccc4N(C)S(C)(=O)=O)n3n1)CCC1(CCN(C)CC1)O2 [Example 996, N-(2-{2-[(7-methoxy-1′-methyl-3,4-dihydrospiro[chromene-2,4′-piperidin]-6-yl)amino]pyrrolo[2,1-f][1,2,4]triazin-7-yl}phenyl)-N-methylmethanesulfonamide]
IC50 (ALK): < 100 nM
IC50 (JAK2): 1000 to 10000 nM

COc1cc2c(cc1Nc1ncc3ccc(-c4ccccc4OC)n3n1)CCC1(CCN(C)CC1)O2 [Example 997, 7-methoxy-N-[7-(2-methoxyphenyl)pyrrolo[2,1-f][1,2,4]triazin-2-yl]-1′-methyl-3,4-dihydrospiro[chromene-2,4′-piperidin]-6-amine]
IC50 (ALK): < 100 nM
IC50 (JAK2): 100 to 1000 nM

COc1cc(OC2CCN(C)CC2)ccc1Nc1ncc2ccc(-c3ccccc3OC)n2n1 [Example 998, [2-Methoxy-4-(1-methyl-piperidin-4-yloxy)-phenyl]-[7-(2-methoxy-phenyl)-pyrrolo[2,1-f][1,2,4]triazin-2-yl]-amine]
IC50 (ALK): < 100 nM
IC50 (JAK2): < 100 nM

COc1cc(OC2CCN(C)CC2)ccc1Nc1ncc2ccc(-c3ccccc3N(C)S(C)(=O)=O)n2n1 [Example 999, N-(2-{2-[2-Methoxy-4-(1-methyl-piperidin-4-yloxy)-phenylamino]-pyrrolo[2,1-f][1,2,4]triazin-7-yl}-phenyl)-N-methyl-methanesulfonamide]
IC50 (ALK): < 100 nM
IC50 (JAK2): 100 to 1000 nM

CC(C)(C)NS(=O)(=O)c1cccc(-c2ccc3cnc(Nc4cccc(OCCN5CCOCC5)c4)nn23)c1 [Example 1001, N-tert-Butyl-3-{2-[3-(2-morpholin-4-yl-ethoxy)-phenylamino]-pyrrolo[2,1-f][1,2,4]triazin-7-yl}-benzenesulfonamide]
IC50 (ALK): 100 to 1000 nM
IC50 (JAK2): < 100 nM

CS(=O)(=O)Nc1ccccc1-c1ccc2cnc(Nc3cccc(OCCN4CCOCC4)c3)nn12 [Example 1002, N-(2-{2-[3-(2-Morpholin-4-yl-ethoxy)-phenylamino]-pyrrolo[2,1-f][1,2,4]triazin-7-yl}-phenyl)-methanesulfonamide]
IC50 (ALK): 1000 to 10000 nM
IC50 (JAK2): < 100 nM

COc1ccccc1-c1ccc2cnc(Nc3cccc(OCCN4CCOCC4)c3)nn12 [Example 1003, [7-(2-Methoxy-phenyl)-pyrrolo[2,1-f][1,2,4]triazin-2-yl]-[3-(2-morpholin-4-yl-ethoxy)-phenyl]-amine]
IC50 (ALK): 100 to 1000 nM
IC50 (JAK2): < 100 nM

Cn1cc(-c2ccc3cnc(Nc4cccc(OCCN5CCOCC5)c4)nn23)cn1 [Example 1004, [7-(1-Methyl-1H-pyrazol-4-yl)-pyrrolo[2,1-f][1,2,4]triazin-2-yl]-[3-(2-morpholin-4-yl-ethoxy)-phenyl]-amine]
IC50 (ALK): 1000 to 10000 nM
IC50 (JAK2): < 100 nM

CN1CCCC1COc1cccc(Nc2ncc3ccc(-c4cccc(S(=O)(=O)NC(C)(C)C)c4)n3n2)c1 (centres unmarked) [Example 1005, N-tert-Butyl-3-{2-[3-(1-methyl-pyrrolidin-2-ylmethoxy)-phenylamino]-pyrrolo[2,1-f][1,2,4]triazin-7-yl}-benzenesulfonamide]
IC50 (ALK): < 100 nM
IC50 (JAK2): < 100 nM

COc1ccccc1-c1ccc2cnc(Nc3cccc(OCC4CCCN4C)c3)nn12 (centres unmarked) [Example 1006]
IC50 (ALK): < 100 nM
IC50 (JAK2): < 100 nM

CN1CCCC1COc1cccc(Nc2ncc3ccc(-c4cnn(C)c4)n3n2)c1 (centres unmarked) [Example 1007, [7-(1-Methyl-1H-pyrazol-4-yl)-pyrrolo[2,1-f][1,2,4]triazin-2-yl]-[3-(1-methyl-pyrrolidin-2-ylmethoxy)-phenyl]-amine]
IC50 (ALK): 100 to 1000 nM
IC50 (JAK2): < 100 nM

COc1ccccc1-c1ccc2cnc(Nc3ccc(C4CCN(C(=O)OC(C)(C)C)C4)cc3)nn12 (centres unmarked) [Example 1008, 3-{4-[7-(2-Methoxy-phenyl)-pyrrolo[2,1-f][1,2,4]triazin-2-ylamino]-phenyl}-pyrrolidine-1-carboxylic acid tert-butyl ester]
IC50 (ALK): 100 to 1000 nM
IC50 (JAK2): < 100 nM

CN1CCCC1COc1cc(Nc2ncc3ccc(-c4cccc(S(=O)(=O)NC(C)(C)C)c4)n3n2)ccc1Cl (centres unmarked) [Example 1009, N-tert-Butyl-3-{2-[4-chloro-3-(1-methyl-pyrrolidin-2-ylmethoxy)-phenylamino]-pyrrolo[2,1-f][1,2,4]triazin-7-yl}-benzenesulfonamide]
IC50 (ALK): 100 to 1000 nM
IC50 (JAK2): < 100 nM

CN1CCCC1COc1cc(Nc2ncc3ccc(-c4ccccc4N(C)S(C)(=O)=O)n3n2)ccc1Cl (centres unmarked) [Example 1010, N-(2-{2-[4-Chloro-3-(1-methyl-pyrrolidin-2-ylmethoxy)-phenylamino]-pyrrolo[2,1-f][1,2,4]triazin-7-yl}-phenyl)-N-methyl-methanesulfonamide]
IC50 (ALK): 100 to 1000 nM
IC50 (JAK2): < 100 nM

COc1ccccc1-c1ccc2cnc(Nc3ccc(Cl)c(OCC4CCCN4C)c3)nn12 (centres unmarked) [Example 1011, [4-Chloro-3-(1-methyl-pyrrolidin-2-ylmethoxy)-phenyl]-[7-(2-methoxy-phenyl)-pyrrolo[2,1-f][1,2,4]triazin-2-yl]-amine]
IC50 (ALK): 100 to 1000 nM
IC50 (JAK2): < 100 nM

COc1ccccc1-c1ccc2cnc(Nc3ccc(C4CCNC4)cc3)nn12 (centres unmarked) [Example 1012, [7-(2-Methoxy-phenyl)-pyrrolo[2,1-f][1,2,4]triazin-2-yl]-(4-pyrrolidin-3-yl-phenyl)-amine]
IC50 (ALK): < 100 nM
IC50 (JAK2): < 100 nM

CN1CCCC1COc1cc(Nc2ncc3ccc(-c4cccc(S(C)(=O)=O)c4)n3n2)ccc1Cl (centres unmarked) [Example 1013, [4-Chloro-3-(1-methyl-pyrrolidin-2-ylmethoxy)-phenyl]-[7-(3-methanesulfonyl-phenyl)-pyrrolo[2,1-f][1,2,4]triazin-2-yl]-amine]
IC50 (ALK): 1000 to 10000 nM
IC50 (JAK2): < 100 nM

CC(C)(C)NS(=O)(=O)c1cccc(-c2ccc3cnc(Nc4ccc(C5CCNCC5O)cc4)nn23)c1 (centres unmarked) [Example 1014, N-tert-Butyl-3-{2-[4-(3-hydroxy-piperidin-4-yl)-phenylamino]-pyrrolo[2,1-f][1,2,4]triazin-7-yl}-benzenesulfonamide]
IC50 (ALK): < 100 nM
IC50 (JAK2): < 100 nM

CC(C)S(=O)(=O)c1cccc(-c2ccc3cnc(Nc4ccc(Cl)c(OC[C@@H]5CCCN5)c4)nn23)c1 [Example 1015, [4-Chloro-3-((S)-1-pyrrolidin-2-ylmethoxy)-phenyl]-{7-[3-(propane-2-sulfonyl)-phenyl]-pyrrolo[2,1-f][1,2,4]triazin-2-yl}-amine]
IC50 (ALK): 100 to 1000 nM
IC50 (JAK2): < 100 nM

CC(C)S(=O)(=O)c1cccc(-c2ccc3cnc(Nc4ccc(Cl)c(OC[C@H]5CCCN5)c4)nn23)c1 [Example 1016, [4-Chloro-3-((R)-1-pyrrolidin-2-ylmethoxy)-phenyl]-{7-[3-(propane-2-sulfonyl)-phenyl]-pyrrolo[2,1-f][1,2,4]triazin-2-yl}-amine]
IC50 (ALK): 100 to 1000 nM
IC50 (JAK2): < 100 nM

CS(=O)(=O)c1cccc(-c2ccc3cnc(Nc4ccc(C5CCNCC5O)cc4)nn23)c1 (centres unmarked) [Example 1018, 4-{4-[7-(3-methanesulfonyl-phenyl)-pyrrolo[2,1-f][1,2,4]triazin-2-ylamino]-phenyl}-piperidine-3-ol]
IC50 (ALK): 100 to 1000 nM
IC50 (JAK2): < 100 nM

CS(=O)(=O)c1cccc(-c2ccc3cnc(Nc4ccc(Cl)c(OC[C@@H]5CCCN5)c4)nn23)c1 [Example 1020, [4-Chloro-3-((S)-1-pyrrolidin-2-ylmethoxy)-phenyl]-[7-(3-methanesulfonyl-phenyl)-pyrrolo[2,1-f][1,2,4]triazin-2-yl]-amine]
IC50 (ALK): 1000 to 10000 nM
IC50 (JAK2): < 100 nM
